Results on five molecules are retold here after patent publication EP0326331B1, “Substituted quinolines and cinnolines” (Dow AgroSciences LLC, priority 1988, dated 1989).

What all share (assay type): in vivo
Data set [1] relates to Erysiphe graminis tritici (powdery mildew). In words: Test 1 greenhouse foliar spray screen, powdery mildew on wheat. As to conditions: for POWD MDEW: disease control rating, foliar spray on wheat, 400 ppm (+++ at 100 ppm); for pest or weed control at 400 ppm: Blumeria graminis, foliar, Test 1, foliar spray on wheat, disease control rating at 400 ppm / 100 ppm, read-out: POWD MDEW.

Data set [2] deals with Pyricularia oryzae (rice blast). In words: whole plant or invertebrate. Conditions: for RICE BLAST: disease control rating, foliar spray on rice, 400 ppm (+++ at 100 ppm); for pest or weed control at 400 ppm: Pyricularia oryzae, foliar, read-out: RICE BLAST, Test 1, foliar spray on rice, disease control rating at 400 ppm / 100 ppm.
In data set [3] the test system is Puccinia recondita tritici (leaf rust). In words: Test 1 greenhouse foliar spray screen, leaf rust on wheat. As to conditions: for LEAF RUST: disease control rating, foliar spray on wheat, 400 ppm (+++ at 100 ppm); for pest or weed control at 400 ppm: Puccinia recondita, foliar, Test 1, foliar spray on wheat, disease control rating at 400 ppm / 100 ppm.
Data set [4] deals with Botrytis cinerea (gray mold). In words: Test 1 greenhouse foliar spray screen, gray mold on grape berries. As to conditions: for GRAY MOLD: disease control rating, spray on grape berries, 400 ppm (+++ at 100 ppm); for pest or weed control at 400 ppm: Botrytis cinerea, foliar, Test 1, spray on grape berries, disease control rating at 400 ppm / 100 ppm.
Data set [5] deals with Pseudoperonospora cubensis (downy mildew). Briefly: Test 1 greenhouse foliar spray screen, downy mildew on squash. Conditions: for DOWN MDEW: disease control rating, foliar spray on squash, 400 ppm (+++ at 100 ppm); for pest or weed control at 400 ppm: Pseudoperonospora cubensis, foliar, Test 1, foliar spray on squash, disease control rating at 400 ppm / 100 ppm, read-out: DOWN MDEW.

The subject of data set [6] is plant pathogens. Briefly: Fungicidal efficacy against a broad spectrum of plant pathogens (summary of screen). Conditions: summary statement in the description.
Data set [7] deals with southern armyworm (Spodopetra eridania Cramer). Briefly: Mite/insect screen, SAW. As to conditions: percent mortality. The procedure, abridged: (§1)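 Percent mortality was scored after standard exposure periods, following spraying of leaves to runoff (both surfaces, 10 psi, 1 h drying) with water dilutions of compound in emulsifier-containing acetone/alcohol (50:50). Armyworms received excised treated leaves in dishes.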

In data set [8] the test system is Twospotted spider mites (Tetranychus urticae Koch). In words: Mite/insect screen, SM. As to conditions: percent mortality. In outline:
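Read-out: percent mortality after standard exposure periods. Test solutions were water dilutions of compound dissolved in acetone/alcohol (50:50) with emulsifier blends; leaves were sprayed to runoff on both surfaces and air-dried for one hour before exposure.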

In data set [9] the test system is melon aphids (Aphis gossypii Glover). In words: Mite/insect screen, MA. Conditions: percent mortality. The procedure, abridged: as §1
For data set [10], the system named is corn rootworm. In words: Mite/insect screen, CRW. Conditions: percent mortality. The procedure, abridged: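 Corn rootworm mortality (%) was evaluated following standard exposure times. Test material was emulsified by dissolution in acetone/alcohol (1:1) containing sulfonate/nonionic emulsifier blends TOXIMUL R (23 g/L) and TOXIMUL S (13 g/L), and water-diluted to the indicated doses.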

Data set [11] deals with Cercospora beticola (leaf spot). In words: Test 1 greenhouse foliar spray screen, leaf spot on sugar beet. Conditions: disease control rating, foliar spray on sugar beet, 400 ppm (+++ at 100 ppm).
Data set [12] relates to Venturia inaequalis (apple scab). In words: Test 1 greenhouse foliar spray screen, apple scab on apple seedling. As to conditions: disease control rating, foliar spray on apple seedling, 400 ppm (+++ at 100 ppm).
Data set [13] deals with Septoria tritici (leaf blotch). In words: Test 1 greenhouse foliar spray screen, leaf blotch on wheat. Conditions: disease control rating, foliar spray on wheat, 400 ppm (+++ at 100 ppm).
Where [14] appears, read: Spodoptera eridania, SAW, SM & MA RATE 400 PPM, read-out: SAW RESULTS %.
The mark [15] stands for this setting: Tetranychus urticae, SAW, SM & MA RATE 400 PPM, read-out: SM RESULTS %.
Setting [16] is: Aphis gossypii, SAW, SM & MA RATE 400 PPM, read-out: MA RESULTS %.
Where [17] appears, read: CRW RATE 24.00 PPM, read-out: CRW RESULTS %.
The mark [18] stands for this setting: Spodoptera eridania, foliar, rate 400 ppm, foliar spray on squash, read-out: SAW RESULTS %.
The mark [19] stands for this setting: Tetranychus urticae, foliar, rate 400 ppm, foliar spray on squash, read-out: SM RESULTS %.
[20] abbreviates: Aphis gossypii, foliar, rate 400 ppm, foliar spray on squash, read-out: MA RESULTS %.
The mark [21] stands for this setting: CRW rate 24.00 ppm, read-out: CRW RESULTS %.

Read-outs that look alike come from different tables or passages of the source.

For the molecule `Fc1cccc2c(NCCc3cccc(Oc4ccccc4)c3)ccnc12` [Example 39, 8-fluoro-N-[2-(3-phenoxyphenyl)ethyl]-4-quinolinamine], in data set [1], the “POWD MDEW” value is given as “+++ (90-100% control at 100 ppm)”. The “RICE BLAST” value in data set [2] is on record as “+++ (90-100% control at 100 ppm)”. Further, the “LEAF RUST” value in data set [3] is recorded as “+++ (90-100% control at 100 ppm)”. Moreover, the “GRAY MOLD” value in data set [4] is given as “- (0-19% control at 400 ppm)”. In [5], the “DOWN MDEW” value was “+++ (90-100% control at 100 ppm)”. Also, in [6], the “activity against a broad spectrum of plant pathogens” value (“activity against a broad spectrum” for short) was “particularly excellent activity”. Also, the mortality at 200 ppm was 0% in data set [7] (Spodoptera eridania, SAW, SM & MA RATE 200 PPM, read-out: SAW RESULTS %); 0% in data set [8] (Tetranychus urticae, SAW, SM & MA RATE 200 PPM, read-out: SM RESULTS %); 0% in data set [9] (Aphis gossypii, SAW, SM & MA RATE 200 PPM, read-out: MA RESULTS %). Further, the mortality at 400 ppm in data set [7] (setting [14]), in [8] (setting [15]) and in data set [9] (setting [16]) was 0% each time. Also, in [10] (CRW RATE 12.00 PPM, read-out: CRW RESULTS %), the mortality at 12 ppm is 0%. In addition, the mortality at 24 ppm in [10] (setting [17]) was determined as 0%.

For `Fc1cccc2c(NCCc3cccc(-c4ccccc4)c3)ccnc12` [Example 72, N-[2-(1,1'-biphenyl)-3-ylethyl]-8-fluoro-4-quinolinamine], the “POWD MDEW” value in [1] is given as “++ (90-100% control at 400 ppm)”. Besides, in [2], the “RICE BLAST” value is given as “+++ (90-100% control at 100 ppm)”. Moreover, in [3], the “LEAF RUST” value was “+++ (90-100% control at 100 ppm)”. The “GRAY MOLD” value in data set [4] was “- (0-19% control at 400 ppm)”. Further, in data set [5], the “DOWN MDEW” value was “+++ (90-100% control at 100 ppm)”. Further, the “activity against a broad spectrum” value in [6] is reported as “particularly excellent activity”. Also, the mortality at 400 ppm in data set [7] (setting [14]), in [8] (setting [15]) and in data set [9] (setting [16]) was 0% each time. Moreover, the mortality at 24 ppm in data set [10] (setting [17]) is 0%.

With `Fc1cccc2c(OCCc3ccccc3C(F)(F)F)ccnc12` [Example 206, 8-fluoro-4-[2-(2-(trifluoromethyl)phenyl)ethoxy]quinoline], the pest or weed control at 400 ppm in [1] fell in the range of 90 to 100%; in [2] it was 90 to 100%; in data set [3], 90 to 100%; in data set [4] it was 0 to 19%; in data set [5], 90 to 100%. In data set [6], the “activity against a broad spectrum” value was “particularly excellent activity”. Moreover, the mortality at 400 ppm in data set [7] (setting [18]), in data set [8] (setting [19]) and in [9] (setting [20]) was 0% in each case. Further, the mortality at 24 ppm in data set [10] (setting [21]) is 0%.

`Cc1cccc(CCOc2ccnc3c(F)cccc23)c1` [Example 224, 8-fluoro-4-[2-(3-methylphenyl)ethoxy]quinoline]: the pest or weed control at 400 ppm was in the range of 90 to 100% in data set [1]; 90 to 100% in data set [2]; 90 to 100% in data set [3]; 0 to 19% in data set [4]; 90 to 100% in data set [5]. Moreover, in data set [6], the “activity against a broad spectrum” value is “particularly excellent activity”. The mortality at 400 ppm in [7] (setting [18]), in data set [8] (setting [19]) and in data set [9] (setting [20]) was 0% throughout. For the same molecule, the mortality at 24 ppm in data set [10] (setting [21]) stood at 0%.

Consider “N-[2-(2,3,4,5,6-tetramethylphenyl)ethyl]-8-fluoro-4-quinolinamine [Example 112]”, for which the “POWD MDEW” value in data set [1] is recorded as “- (0-19% control at 400 ppm)”. Moreover, the “RICE BLAST” value in [2] is “- (0-19% control at 400 ppm)”. The “LEAF RUST” value in data set [3] is “+ (20-89% control at 400 ppm)”. In addition, the “GRAY MOLD” value in data set [4] is listed as “- (0-19% control at 400 ppm)”. Besides, in data set [5], the “DOWN MDEW” value is reported as “+++ (90-100% control at 100 ppm)”. In addition, in [11], the “LEAF SPOT” value was “- (0-19% control at 400 ppm)”. In addition, in data set [12], the “APPL SCAB” value is recorded as “- (0-19% control at 400 ppm)”. Further, in [13], the “LEAF BLOT” value is given as “- (0-19% control at 400 ppm)”. For the same molecule, the “SAW RESULTS %” value in data set [7] (SAW, SM & MA RATE 200 PPM) worked out at 0%; in data set [7] (SAW, SM & MA RATE 400 PPM), 0%. Further, the “SM RESULTS %” value in [8] (SAW, SM & MA RATE 200 PPM) was 0%; in data set [8] (SAW, SM & MA RATE 400 PPM), 0%. Besides, the “MA RESULTS %” value in [9] (SAW, SM & MA RATE 200 PPM) is 0%; in data set [9] (SAW, SM & MA RATE 400 PPM), 0%. Further, the “CRW RESULTS %” value in [10] (CRW RATE 12.00 PPM) and in [10] (CRW RATE 24.00 PPM) was 0% throughout.
